Laboratory results: US20250034135A1, “ANTI-APOPTOTIC PROTEIN BCL-2 INHIBITOR, PHARMACEUTICAL COMPOSITION AND USES THEREOF” (HANGZHOU HEALZEN THERAPEUTICS CO., LTD., priority 2021, published 2025)

Assays:
BCL-XL = BCL-XL (Homo sapiens (Human), UniProt Q07817); assay: BCL-XL enzyme molecular level activity test (HTRF, binding to BIM peptide); conditions: binding of BCL-XL to BIM peptide, values in nM, read-out: BCL-XL inhibitory activity (IC50)
Protocol: In a white shallow 384-well plate, a total reaction volume was 10 μL. Specifically, it included 2 μL of the compound to be tested (2% DMSO), […] His-tagged recombinant protein, and 4 μL Biotin-tagged BIM protein peptide. After 1 hour of reaction, 5 μL of each Anti-His and streptavidin-tagged XL665 antibody diluents diluted with a detection buffer were added. After incubating at room temperature for 4 hours, the values were read using the Envision multifunctional microplate reader to detect the effect of the compound to be tested on the binding ability of BCL-XL to BIM protein peptides. The Envision parameter settings were exciting light at 320 nm, and emitting light at 615 nm and 665 nm. The binding ability of anti-apoptotic proteins to Bim protein peptides was indirectly reflected by the signal ratio of 665 nm and 615 nm. In the reaction, background wells without BCL2 and active wells for full binding of recombinant proteins without compounds and Bim protein peptides were set up.

BCL2 = BCL2 (Homo sapiens (Human), UniProt P10415); assay: Molecular level activity test of anti-apoptotic protein BCL2 (HTRF, binding to Bim peptide); conditions: HTRF, binding of BCL2 to Bim peptide; read-out: BCL2 nM (inhibitory activity, IC50)
Procedure, shortened: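 Disruption of the BCL2/Bim peptide interaction is detected by homogeneous time-resolved fluorescence, using anti-His and streptavidin-XL665 reagents against His-tagged protein and biotin-tagged peptide. Compound exposure lasts 1 h before reagent addition; plates then sit 4 h at room temperature.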

Chain of BCL-XL (Q07817 whole entry): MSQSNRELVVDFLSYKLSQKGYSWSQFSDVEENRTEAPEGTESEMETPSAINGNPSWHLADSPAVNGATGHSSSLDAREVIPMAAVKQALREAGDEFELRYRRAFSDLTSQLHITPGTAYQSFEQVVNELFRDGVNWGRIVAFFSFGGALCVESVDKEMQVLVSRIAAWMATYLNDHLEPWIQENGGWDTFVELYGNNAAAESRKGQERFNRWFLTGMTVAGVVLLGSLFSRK
Chain of BCL2 (P10415 whole entry): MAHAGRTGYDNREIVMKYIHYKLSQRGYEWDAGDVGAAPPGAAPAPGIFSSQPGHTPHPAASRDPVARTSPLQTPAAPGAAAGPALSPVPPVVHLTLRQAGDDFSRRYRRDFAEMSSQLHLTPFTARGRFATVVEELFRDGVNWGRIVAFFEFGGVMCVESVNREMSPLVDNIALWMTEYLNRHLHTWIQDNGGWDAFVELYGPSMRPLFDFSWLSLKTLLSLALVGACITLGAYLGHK

IC50 (BCL-XL) [nM]	IC50 (BCL2) [µM]	Structure (SMILES)
> 500	< 0.01	COc1ccc(CN2CCN(C3CC4(CCN(c5cc(Oc6cnc7[nH]ccc7c6)c(C(=O)NS(=O)(=O)c6ccc(NCC7(F)CCOCC7)c([N+](=O)[O-])c6)cc5F)CC4)C3)C(c3ccccc3C(C)C)C2)cc1 (stereo not shown) [compound 066, 2-((1H-pyrrolo[2,3-b]pyrid-5-yl)oxy)-5-fluoro-N-((4-(((4-fluorotetrahydro-2H-pyran-4-yl)methyl)amino)-3-nitrophenyl)sulfonyl)-4-(2-(2-(2-isopropylphenyl)-4-(4-methoxybenzyl)piperazin-1-yl)-7-azaspiro[3.5]non-7-yl)benzamide]
> 500	< 0.01	CC(C)c1ccccc1[C@@H]1CN(Cc2ccc(C(F)(F)F)cc2)CCN1C1CC2(CCN(c3cc(Oc4cnc5[nH]ccc5c4)c(C(=O)NS(=O)(=O)c4ccc(NC[C@H]5CC[C@](C)(O)CC5)c([N+](=O)[O-])c4)cc3F)CC2)C1 [compound 216, 2-((1H-pyrrolo[2,3-b]pyrid-5-yl)oxy)-5-fluoro-N-((4-((((1r, 4r)-4-hydroxy-4-methylcyclohexyl)methyl)amino)-3-nitrophenyl)sulfonyl)-4-(2-((R)-2-(2-isopropylphenyl)-4-(4-(trifluoromethyl)benzyl)piperazin-1-yl)-7-azaspiro[3.5]non-7-yl)benzamide]
> 500	< 0.01	CC(C)c1ccccc1[C@@H]1CN(Cc2ccc3c(c2)OCO3)CCN1C1CC2(CCN(c3cc(Oc4cnc5[nH]ccc5c4)c(C(=O)NS(=O)(=O)c4ccc(NC[C@H]5CC[C@](C)(O)CC5)c([N+](=O)[O-])c4)cc3F)CC2)C1 [compound 224, 2-((1H-pyrrolo[2,3-b]pyrid-5-yl)oxy)-4-(2-((R)-4-(benzo[d][1,3]dioxocyclopent-5-ylmethyl)-2-(2-isopropylphenyl)piperazin-1-yl)-7-azaspiro[3.5]non-7-yl)-5-fluoro-N-((4-((((1r, 4r)-4-hydroxy-4-methylcyclohexyl)methyl)amino)-3-nitrophenyl)sulfonyl)benzamide]
> 500	< 0.01	CC(C)c1ccc(CN2CCN(C3CC4(CCN(c5cc(Oc6cnc7[nH]ccc7c6)c(C(=O)NS(=O)(=O)c6ccc(NCC7(F)CCOCC7)c([N+](=O)[O-])c6)cc5F)CC4)C3)[C@H](c3ccccc3C(C)C)C2)cc1 [compound 193, (R)-2-((1H-pyrrolo[2,3-b]pyrid-5-yl)oxy)-5-fluoro-N-((4-(((4-fluorotetrahydro-2H-pyran-4-yl)methyl)amino)-3-nitrophenyl)sulfonyl)-4-(2-(4-(4-isopropylbenzyl)-2-(2-isopropylphenyl)piperazin-1-yl)-7-azaspiro[3.5]non-7-yl)benzamide]
> 500	< 0.01	CC(C)c1ccccc1[C@@H]1CN(Cc2ccc(C3CC3)cc2)CCN1C1CC2(CCN(c3cc(Oc4cnc5[nH]ccc5c4)c(C(=O)NS(=O)(=O)c4ccc(NCC5(F)CCOCC5)c([N+](=O)[O-])c4)cc3F)CC2)C1 [compound 195, (R)-2-((1H-pyrrolo[2,3-b]pyrid-5-yl)oxy)-4-(2-(4-(4-cyclopropylbenzyl)-2-(2-isopropylphenyl)piperazin-1-yl)-7-azaspiro[3.5]non-7-yl)-5-fluoro-N-((4-(((4-fluorotetrahydro-2H-pyran-4-yl)methyl)amino)-3-nitrophenyl)sulfonyl)benzamide]
> 500	< 0.01	CC(C)c1ccccc1[C@@H]1CN(Cc2ccc3c(c2)OCCO3)CCN1C1CC2(CCN(c3cc(Oc4cnc5[nH]ccc5c4)c(C(=O)NS(=O)(=O)c4ccc(NCC5(F)CCOCC5)c([N+](=O)[O-])c4)cc3F)CC2)C1 [compound 207, (R)-2-((1H-pyrrolo[2,3-b]pyrid-5-yl)oxy)-4-(2-(4-((2,3-dihydrobenzo[b][1,4]dioxane-6-yl)methyl)-2-(2-isopropylphenyl)piperazin-1-yl)-7-azaspiro[3.5]non-7-yl)-5-fluoro-N-((4-(((4-fluorotetrahydro-2H-pyran-4-yl)methyl)amino)-3-nitrophenyl)sulfonyl)benzamide]
> 500	< 0.01	CC(C)c1ccccc1[C@@H]1CN(Cc2ccc(C(F)(F)F)cc2)CCN1C1CC2(CCN(c3cc(Oc4cnc5[nH]ccc5c4)c(C(=O)NS(=O)(=O)c4ccc(NCC5(F)CCOCC5)c([N+](=O)[O-])c4)cc3F)CC2)C1 [compound 188, (R)-2-((1H-pyrrolo[2,3-b]pyrid-5-yl)oxy)-5-fluoro-N-((4-(((4-fluorotetrahydro-2H-pyran-4-yl)methyl)amino)-3-nitrophenyl)sulfonyl)-4-(2-(2-(2-isopropylphenyl)-4-(4-(trifluoromethyl)benzyl)piperazin-1-yl)-7-azaspiro[3.5]non-7-yl)benzamide]
> 500	< 0.01	CC(C)c1ccccc1[C@@H]1CN(Cc2cccc3c2OCO3)CCN1C1CC2(CCN(c3cc(Oc4cnc5[nH]ccc5c4)c(C(=O)NS(=O)(=O)c4ccc(NCC5(F)CCOCC5)c([N+](=O)[O-])c4)cc3F)CC2)C1 [compound 204, (R)-2-((1H-pyrrolo[2,3-b]pyrid-5-yl)oxy)-4-(2-(4-(benzo[d][1,3]dioxocyclopent-4-ylmethyl)-2-(2-isopropylphenyl)piperazin-1-yl)-7-azaspiro[3.5]non-7-yl)-5-fluoro-N-((4-(((4-fluorotetrahydro-2H-pyran-4-yl)methyl)amino)-3-nitrophenyl)sulfonyl)benzamide]
> 500	< 0.01	CC(C)c1ccccc1[C@@H]1CN(Cc2cccc3c2OCCO3)CCN1C1CC2(CCN(c3cc(Oc4cnc5[nH]ccc5c4)c(C(=O)NS(=O)(=O)c4ccc(NC[C@H]5CC[C@](C)(O)CC5)c([N+](=O)[O-])c4)cc3F)CC2)C1 [compound 227, 2-((1H-pyrrolo[2,3-b]pyrid-5-yl)oxy)-4-(2-((R)-4-((2,3-dihydrobenzo[b][1,4]dioxane-5-yl)methyl)-2-(2-isopropylphenyl)piperazin-1-yl)-7-azaspiro[3.5]non-7-yl)-5-fluoro-N-((4-((((1r, 4r)-4-hydroxy-4-methylcyclohexyl)methyl)amino)-3-nitrophenyl)sulfonyl)benzamide]
> 500	< 0.01	CC(C)c1ccccc1[C@@H]1CN(Cc2ccc3c(c2)OCCO3)CCN1C1CC2(CCN(c3cc(Oc4cnc5[nH]ccc5c4)c(C(=O)NS(=O)(=O)c4ccc(NC[C@H]5CC[C@](C)(O)CC5)c([N+](=O)[O-])c4)cc3F)CC2)C1 [compound 226, 2-((1H-pyrrolo[2,3-b]pyrid-5-yl)oxy)-4-(2-((R)-4-((2,3-dihydrobenzo[b][1,4]dioxane-6-yl)methyl)-2-(2-isopropylphenyl)piperazin-1-yl)-7-azaspiro[3.5]non-7-yl)-5-fluoro-N-((4-((((1r, 4r)-4-hydroxy-4-methylcyclohexyl)methyl)amino)-3-nitrophenyl)sulfonyl)benzamide]
> 500	< 0.01	COc1ccc(CN2CCN(C3CC4(CCN(c5cc(Oc6cnc7[nH]ccc7c6)c(C(=O)NS(=O)(=O)c6ccc(NCC7(F)CCOCC7)c([N+](=O)[O-])c6)cc5F)CC4)C3)[C@H](c3ccccc3C(C)C)C2)c2c1OCO2 [compound 205]
> 500	< 0.01	CC(C)c1ccccc1[C@@H]1CN(Cc2c(F)cccc2F)CCN1C1CC2(CCN(c3cc(Oc4cnc5[nH]ccc5c4)c(C(=O)NS(=O)(=O)c4ccc(NC[C@H]5CC[C@](C)(O)CC5)c([N+](=O)[O-])c4)cc3F)CC2)C1 [compound 217, 2-((1H-pyrrolo[2,3-b]pyrid-5-yl)oxy)-4-(2-((R)-4-(2,6-difluorobenzyl)-2-(2-isopropylphenyl)piperazin-1-yl)-7-azaspiro[3.5]non-7-yl)-5-fluoro-N-((4-((((1r, 4r)-4-hydroxy-4-methylcyclohexyl)methyl)amino)-3-nitrophenyl)sulfonyl)benzamide]
	< 0.01	COc1ccc(CN2CCN(C3CC4(CCN(c5cc(Oc6cnc7[nH]ccc7c6)c(C(=O)NS(=O)(=O)c6ccc(NCC7(F)CCOCC7)c([N+](=O)[O-])c6)cc5F)CC4)C3)[C@@H](c3ccccc3C(C)C)C2)cc1 [compound 153, (S)-2-((1H-pyrrolo[2,3-b]pyrid-5-yl)oxy)-5-fluoro-N-((4-(((4-fluorotetrahydro-2H-pyran-4-yl)methyl)amino)-3-nitrophenyl)sulfonyl)-4-(2-(2-(2-isopropylphenyl)-4-(4-methoxybenzyl)piperazin-1-yl)-7-azaspiro[3.5]non-7-yl)benzamide]
